Measurements as given in US20050014846A1, “Ambroxol for the treatment of tinnitus” (Boehringer Ingelheim International GmbH, priority 2003, published 2005).
pIC50: −log10 of the molar value.

Assays:
[1] = test system: centrally expressed neuronal sodium channels; conditions: neuronal sodium channel subtypes, Weiser and Wilson, Mol. Pharmacol. 62, 433-438, 2002, read-out: half-maximum inhibition of centrally expressed channels; cited from earlier work
human GluR1/2 receptors = target: T1, human GluR1/2 receptors (Homo sapiens, UniProt P42261+P42262); assay: Patch-clamp of glutamate-induced membrane currents in HEK 293 cells expressing GluR1/2; type: cell-based; conditions: recombinant human GluR1/2, 1 mM glutamate for 1 s at holding potential −80 mV
T1 construct: expressed in transfected cells; host or cells: HEK 293
Experimental: Ionotropic glutamate receptors of the AMPA subtype are also essential for the excitatory neurotransmission. […] HEK 293 cells which expressed functionally recombinant human GluR1/2 receptors were electrophysiologically investigated by the Patch-Clamp method ([…]). The administration of 1 mM glutamate (for 1 s at a holding potential of −80 mV) induced membrane currents which were inhibited by the joint administration of ambroxol.

T1 sequence (P42261 19-906): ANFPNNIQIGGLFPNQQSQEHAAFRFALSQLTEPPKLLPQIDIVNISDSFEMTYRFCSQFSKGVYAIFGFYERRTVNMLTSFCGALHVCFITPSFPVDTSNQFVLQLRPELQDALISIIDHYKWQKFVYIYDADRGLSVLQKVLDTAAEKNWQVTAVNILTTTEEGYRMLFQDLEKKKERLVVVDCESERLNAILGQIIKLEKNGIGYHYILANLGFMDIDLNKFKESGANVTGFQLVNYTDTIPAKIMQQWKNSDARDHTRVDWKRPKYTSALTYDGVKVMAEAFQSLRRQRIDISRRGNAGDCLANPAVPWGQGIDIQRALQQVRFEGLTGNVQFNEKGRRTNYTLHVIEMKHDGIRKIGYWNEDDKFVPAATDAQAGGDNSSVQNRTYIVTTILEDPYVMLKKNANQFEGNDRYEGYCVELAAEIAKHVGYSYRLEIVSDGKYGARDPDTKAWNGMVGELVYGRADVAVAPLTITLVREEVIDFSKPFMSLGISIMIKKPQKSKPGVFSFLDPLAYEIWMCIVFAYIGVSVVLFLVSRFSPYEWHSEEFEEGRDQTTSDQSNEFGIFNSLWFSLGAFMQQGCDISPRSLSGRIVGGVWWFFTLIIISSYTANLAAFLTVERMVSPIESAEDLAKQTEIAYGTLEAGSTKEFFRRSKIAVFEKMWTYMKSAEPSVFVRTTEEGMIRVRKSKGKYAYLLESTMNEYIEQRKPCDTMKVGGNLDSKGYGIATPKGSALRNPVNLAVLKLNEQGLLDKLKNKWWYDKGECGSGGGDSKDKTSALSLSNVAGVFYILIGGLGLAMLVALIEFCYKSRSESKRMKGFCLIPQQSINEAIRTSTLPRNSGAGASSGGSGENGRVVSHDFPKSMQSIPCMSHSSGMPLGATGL
T1 sequence (P42262 22-883 limits assumed): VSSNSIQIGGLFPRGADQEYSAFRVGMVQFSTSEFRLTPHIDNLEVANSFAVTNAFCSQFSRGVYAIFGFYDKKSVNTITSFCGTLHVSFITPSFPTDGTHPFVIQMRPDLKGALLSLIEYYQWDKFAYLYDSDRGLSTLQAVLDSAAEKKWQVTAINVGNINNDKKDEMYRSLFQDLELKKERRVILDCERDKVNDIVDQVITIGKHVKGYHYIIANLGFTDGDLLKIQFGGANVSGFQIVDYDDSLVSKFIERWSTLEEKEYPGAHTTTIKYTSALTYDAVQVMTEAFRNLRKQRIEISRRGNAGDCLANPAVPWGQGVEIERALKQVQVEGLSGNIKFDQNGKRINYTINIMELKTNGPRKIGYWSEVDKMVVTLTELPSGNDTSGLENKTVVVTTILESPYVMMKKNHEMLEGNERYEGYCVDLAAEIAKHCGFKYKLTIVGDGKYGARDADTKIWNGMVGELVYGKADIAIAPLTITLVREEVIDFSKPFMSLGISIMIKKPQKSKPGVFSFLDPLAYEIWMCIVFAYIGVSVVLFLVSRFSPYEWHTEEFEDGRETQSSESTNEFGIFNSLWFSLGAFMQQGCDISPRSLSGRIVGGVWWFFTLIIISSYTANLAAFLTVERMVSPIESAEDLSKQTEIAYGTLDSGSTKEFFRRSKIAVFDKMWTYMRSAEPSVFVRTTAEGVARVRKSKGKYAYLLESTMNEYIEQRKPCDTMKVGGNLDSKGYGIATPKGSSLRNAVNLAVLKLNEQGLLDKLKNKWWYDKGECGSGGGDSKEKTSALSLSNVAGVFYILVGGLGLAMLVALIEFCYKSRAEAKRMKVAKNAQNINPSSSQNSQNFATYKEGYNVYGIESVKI

Structure (SMILES): Nc1c(Br)cc(Br)cc1CN[C@H]1CC[C@H](O)CC1 [ambroxol, trans-4-(2-amino-3,5-dibromobenzylamino)cyclohexanol]
- pIC50 [1]: 3.95
- concentrations inhibiting glutamate-induced membrane currents (human GluR1/2 receptors): 30 to 1000 µM
